Test results reported in the NIST ThermoML archive (doi:10.1016/j.jct.2015.06.036).

What was measured:
[1] = 101 kPa, Liquid; for viscosity: Falling or rolling sphere viscometry; for speed of sound: Sing-around technique in a fixed-path interferometer; for mass density: Vibrating tube method
[2] = refractive index (Na D-line) (dimensionless); conditions: 101 kPa, Liquid, Standard Abbe refractometry
[3] = refractive index (Na D-line) (dimensionless); xn = mol fraction of the nth substance listed; conditions: 101 kPa, Liquid, Standard Abbe refractometry, x2 = 0
[4] = xn = mol fraction of the nth substance listed; conditions: 101 kPa, Liquid, x2 = 0; for viscosity: Falling or rolling sphere viscometry; for speed of sound: Sing-around technique in a fixed-path interferometer; for mass density: Vibrating tube method

CCCCn1cc[n+](C)c1.F[B-](F)(F)F [1-butyl-3-methylimidazolium tetrafluoroborate]
Conditions | mass density, [1] [kg/m3] | refractive index, [2] | speed of sound, [1] [m/s] | viscosity, [1] [mPa·s]
278.15 K | 1215.9 | – | 1615 | 361
288.15 K | 1208.5 | 1.4243 | 1590 | 186
298.15 K | 1201.3 | 1.4217 | 1565 | 105
308.15 K | 1194.2 | 1.419 | 1542 | 64.8
318.15 K | 1187.2 | 1.4164 | 1519 | 42.7

CCn1cc[n+](C)c1.F[B-](F)(F)F [1-ethyl-3-methylimidazolium tetrafluoroborate]
Conditions | mass density, [1] [kg/m3] | refractive index, [2] | speed of sound, [1] [m/s] | viscosity, [1] [mPa·s]
278.15 K | 1305.3 | – | 1677 | 101
288.15 K | 1297.6 | 1.4143 | 1653 | 62
298.15 K | 1290 | 1.4118 | 1629 | 41
308.15 K | 1282.4 | 1.4092 | 1606 | 28.8
318.15 K | 1274.9 | 1.4067 | 1583 | 21.2

CO [methanol]
Conditions | mass density, [1] [kg/m3] | refractive index, [2] | speed of sound, [1] [m/s] | viscosity, [1] [mPa·s]
278.15 K | 805.4 | – | 1169 | 0.687
288.15 K | 796 | 1.3316 | 1135 | 0.596
298.15 K | 786.6 | 1.3265 | 1102 | 0.524
308.15 K | 777.1 | 1.3224 | 1070 | 0.466
318.15 K | 767.6 | 1.3182 | 1037 | 0.42

CO [methanol] + CCCCn1cc[n+](C)c1.F[B-](F)(F)F
Conditions | mass density, [4] [kg/m3] | refractive index, [3] | speed of sound, [4] [m/s] | viscosity, [4] [mPa·s]
278.15 K | 805.4 | – | 1169 | 0.687
288.15 K | 796 | 1.3316 | 1135 | 0.596
298.15 K | 786.6 | 1.3265 | 1102 | 0.524
308.15 K | 777.1 | 1.3224 | 1070 | 0.466
318.15 K | 767.6 | 1.3182 | 1037 | 0.42

CO [methanol] + CCn1cc[n+](C)c1.F[B-](F)(F)F
Conditions | mass density, [4] [kg/m3] | refractive index, [3] | speed of sound, [4] [m/s] | viscosity, [4] [mPa·s]
278.15 K | 805.4 | – | 1169 | 0.687
288.15 K | 796 | 1.3316 | 1135 | 0.596
298.15 K | 786.6 | 1.3265 | 1102 | 0.524
308.15 K | 777.1 | 1.3224 | 1069 | 0.466
318.15 K | 767.6 | 1.3182 | 1037 | 0.42
